Assay results reported in patent EP1902732A1, “PROPHYLACTIC/THERAPEUTIC AGENT FOR HER2-EXPRESSING CANCER” (Takeda Pharmaceutical Company Limited, priority 2005, dated 2006).

Columns and labels:
[1] = test system: phosphorylated acetyl-CoA carboxylase (ACC); assay: Western blotting of phosphorylated ACC in BT-474 cells; assay type: cell-based, human; conditions: Example 7, two hours, antimycin 1-0.01 nmol/L, oligomycin 100-1 ng/mL, 2,4-dinitrophenol 300-3 µmol/L
Experimental: Human HER2-expressing human breast cancer cell line BT-474 (purchased from American Tissue Culture Collection (ATCC)) was seeded into a 24-multiwell plate (BT-474: 1.2 x 10^5 cells/well) and cultured overnight in a carbon dioxide gas incubator (5% CO2, 37°C). As an energy metabolism inhibitor having a mechanism that differed from that of rotenone, mitochondrial respiratory chain complex III-inhibiting compound antimycin (Wako Pure Chemical Industries) was added to final concentrations of 1, 0.3, 0.1, 0.03 and 0.01 nmol/L while continuing culture. Using another plate, mitochondrial respiratory chain complex V-inhibiting compound oligomycin (Wako Pure Chemical Industries) was added to final concentrations of 100, 30, 10, 3 and 1 ng/mL while continuing culture. In addition, 2,4-dinitrophenol was added to 300, 100, 30, 10 and 3 µmol/L while continuing culture. Two hours after the addition of the agent, the broth was removed and the cells were lysed with an SDS sample buffer (200 µL). Then, this cell lysate was used to perform western blotting analysis. Specifically, this cell lysate (8 µL) was separated by an SDS-PAGE method (gel concentration: 7.5-15%) (Analytical Biochemistry, No. 166, pp. 368-379, 1987) and transferred onto a nitrocellulose membrane (BioRad). Then, an antibody specific to phosphorylated HER2 (Cell signaling technology, Code# 2244), pACC antibody specific to phosphorylated acetyl-CoA carboxylase (ACC) (Cell signaling technology, Code# 3661) and anti-phosphorylated S6K antibody specific to phosphorylated S6 kinase (S6K) (Cell signaling technology, Code# 9209) were used to detect the antibody by chemiluminescent detection with an ECL system (Amersham) to quantify an amount of phosphorylated protein with LAS-1000 plus image analysis device (FUJIFILM).

[2] = test system: DU145; assay: Viable cell count using Cell Counting Kit-F; assay type: cell-based; conditions: HER2-nonexpressing cancer, five days of culture
[3] = test system: HER2; assay: Western blotting of phosphorylated HER2 in BT-474 cells; assay type: cell-based, human
Experimental: Human HER2-expressing human breast cancer cell line BT-474 (purchased from American Tissue Culture Collection (ATCC)) was seeded into a 24-multiwell plate (BT-474: 1.2 x 10^5 cells/well), and cultured overnight in a carbon dioxide gas incubator (5% CO2, 37°C). A 4-fold dilution series of a mitochondrial respiratory chain complex inhibiting compound (complex I: rotenone, complex III: antimycin, complex V: oligomycin: Wako Pure Chemical Industries) was added starting from a final concentration of 1 µmol/L in 5 steps while continuing culture. After 2 hours, the broth was removed, and the cells were lysed with an SDS sample buffer (200 µL). Western blotting analysis was performed as follows. Specifically, this cell lysate (8 µL) was separated by an SDS-PAGE method (gel concentration: 7.5-15%) (Analytical Biochemistry, No. 166, pp. 368-379, 1987), and transferred to a nitrocellulose membrane (BioRad). Then, an antibody specific to phosphorylated HER2 (Cell signaling technology, Code# 2244), an anti-phosphorylated Akt antibody specific to downstream antiapoptotic signal transducing molecule Akt (Cell signaling technology, Code# 9271) and an anti-phosphorylated MAPK antibody specific to downstream proliferation signal transducing molecule MAPK (Cell signaling technology, Code# 9101) were used to detect the antibody with an ECL system (Amersham) to quantify the amount of phosphorylated protein by an image analysis.
Human HER2-expressing human cancer cell line BT-474 (purchased from ATCC) was seeded into a 24-multiwell plate (1.2 x 10^5 cells/well) and cultured overnight in a carbon dioxide gas incubator (20% O2, 5% CO2, 37°C). A 3-fold dilution series of metformin that activates AMPK (The Journal of Biological Chemistry, Vol. 279, No. 42, pp. 43940-43951, 2004) was added starting from a final concentration of 15 mmol/L in 5 steps while continuing culture. Two hours later, the broth was removed and the cells were lysed with an SDS sample buffer (200 µL). This cell lysate (8 µL) was separated by an SDS-PAGE method (gel concentration: 7.5-15%) (Analytical Biochemistry, No. 166, pp. 368-379, 1987). Then, western blotting analysis was performed in the same manner as in Example 1 to quantify phosphorylated HER2, phosphorylated Akt and phosphorylated MAPK.
Human HER2-expressing human breast cancer cell line BT-474 (purchased from American Tissue Culture Collection (ATCC)) was seeded into a 24-multiwell plate (BT-474: 1.2 x 10^5 cells/well), and cultured overnight in a carbon dioxide gas incubator (5% CO2, 37°C). Mitochondrial respiratory chain complex 1-inhibiting compound rotenone (Wako Pure Chemical Industries) was added in 5 steps at final concentrations of 1, 0.333, 0.111, 0.033 and 0.011 µmol/L while continuing culture. Two hours later, the broth was removed and the cells were lysed with an SDS sample buffer (200 µL). Then, this cell lysate was used to perform western blotting analysis. Specifically, this cell lysate (8 µL) was separated by an SDS-PAGE method (gel concentration: 7.5-15%) (Analytical Biochemistry, No. 166, pp. 368-379, 1987) and transferred to a nitrocellulose membrane (BioRad). Then, an antibody specific to phosphorylated HER2 (Cell signaling technology, Code# 2244), an AMPK antibody specific to AMPK (Cell signaling technology, Code# 2535) and an anti-phosphorylated AMPK antibody specific to phosphorylated AMPK (Cell signaling technology, Code# 2532) were used to detect the antibody by chemiluminescent detection with an ECL system (Amersham) to quantify an amount of phosphorylated protein with LAS-1000 plus image analysis device (FUJIFILM).
Human HER2-expressing human breast cancer cell line BT-474 (purchased from American Tissue Culture Collection (ATCC)) was seeded into a 24-multiwell plate (BT-474: 1.2 x 10^5 cells/well) and cultured overnight in a carbon dioxide gas incubator (5% CO2, 37°C). […]

[4] = Example 7, two hours, antimycin 1-0.01 nmol/L, oligomycin 100-1 ng/mL, 2,4-dinitrophenol 300-3 µmol/L

| Compound | phosphorylation of ACC [1] | minimum concentrations for inhibiting cell proliferation for 50% or more [2] [nmol/L] | HER2 phosphorylation ([3]; Example 2, 4-fold dilution series from 1 µmol/L in 5 steps, 2 hours) | HER2 phosphorylation [3, 4] |
| --- | --- | --- | --- | --- |
| antimycin | increased dose-dependently | >100 | suppression of HER2 phosphorylation was confirmed | decreased dose-dependently |
| O=[N+]([O-])c1ccc(O)c([N+](=O)[O-])c1 [2,4-dinitrophenol] | increased dose-dependently | 67000 |  | decreased dose-dependently |
